Test systems include A498; ACHN; CCRF-CEM; COLO 205; HCC 2998; HCT-116; HOP-62; HT-29; IGROV-1; NCI-H460; OVCAR-8; RXF 393; SF-295; SK-MEL-2; SK-MEL-5; SN12C; SNB-19; SW-620; UACC-62; UO-31.
Holding throughout (assay): DTP human tumour cell line panel, 48 h

The structures appear in SMILES notation.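 Cultured in 96-well plates, cells were exposed to test compound for 48 hours across five concentrations. GI50: concentration for 50% inhibition of growth.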 Calls of active or inactive are those of the source. No stated cut-off is given here; in the data, active = GI50 up to about 1.1 µM and inactive = higher.

As for `Cc1cccc2nc3cccc(C(=O)NCCN(C)C)c3nc12`, the GI50 – broadly, the concentration giving 50% growth inhibition – in the assay with A498 is 0.266 µM (active); in the assay on ACHN, 0.41 µM (active); in the assay on CCRF-CEM, 0.627 µM (active); in the assay with COLO 205, 0.443 µM (active); in the assay on HCC 2998, 1.04 µM (active); with HCT-116, 0.293 µM (active). For the same compound, the 50% growth inhibitory concentration (GI50) in the assay with HOP-62 is 0.247 µM (active); in the assay on HT-29, 0.507 µM (active); in the assay with IGROV-1, 0.525 µM (active); in the assay on NCI-H460, 0.301 µM (active); with OVCAR-8 it was 0.673 µM (active); with RXF 393 it was 1.03 µM (active). Also, the concentration for 50% growth inhibition (GI50) is 0.643 µM (active) with SF-295; 1.27 µM (inactive) in the assay with SK-MEL-2; 0.54 µM (active) in the assay with SK-MEL-5; 0.339 µM (active) in the assay on SN12C; 0.525 µM (active) in the assay on SNB-19; 0.272 µM (active) in the assay with SW-620. The GI50 in the assay with UACC-62 was 0.644 µM (active); in the assay with UO-31, 0.239 µM (active).
Regarding `O=C(Nc1ccccc1F)c1c(O)nc2sccn2c1=O`, the GI50 in the assay with A498, in the assay with ACHN, in the assay on CCRF-CEM, in the assay on COLO 205, in the assay with HCC 2998 and in the assay on HCT-116 was > 10 µM (inactive) throughout. Moreover, the GI50 with HOP-62, with HT-29, in the assay on IGROV-1, with NCI-H460, in the assay with OVCAR-8 and in the assay on RXF 393 was > 10 µM (inactive) each time. The GI50 with SF-295, in the assay with SK-MEL-2, with SK-MEL-5, in the assay with SN12C, in the assay on SNB-19 and in the assay on SW-620 was > 10 µM (inactive) in each case. Besides, the GI50 in the assay on UACC-62 and with UO-31 was > 10 µM (inactive) in each case.
In the case of `COc1cccc(-c2nnc3c(-c4ccccc4)nc4ccccc4n23)c1`, the GI50 is 6.58 µM (inactive) in the assay on A498; > 62.2 µM (inactive) with ACHN; 11.2 µM (inactive) with CCRF-CEM; 8.57 µM (inactive) in the assay with COLO 205; 8.49 µM (inactive) with HCC 2998; 19.7 µM (inactive) in the assay with HCT-116. For the same compound, the GI50 with HOP-62 was 58.1 µM (inactive); with HT-29, 19.2 µM (inactive); with IGROV-1, 21.6 µM (inactive); in the assay with NCI-H460, 10.3 µM (inactive); with OVCAR-8, 45.2 µM (inactive); in the assay on RXF 393, 8.38 µM (inactive). Moreover, the GI50 with SF-295 was 35.6 µM (inactive); in the assay on SK-MEL-2 it was 10.1 µM (inactive); in the assay on SK-MEL-5, 14 µM (inactive); in the assay on SN12C it was 73.1 µM (inactive); in the assay on SNB-19, > 100 µM (inactive); with SW-620 it was 16.4 µM (inactive). Moreover, the GI50 in the assay with UACC-62 was 75.7 µM (inactive); with UO-31 it was 10.5 µM (inactive).
Regarding `C[N+](C)(C)CC1CCCC(C[N+](C)(C)C)C1=O` (centres undefined), the GI50 in the assay on A498 was 9.62 µM (inactive); in the assay with ACHN it was 0.845 µM (active); with CCRF-CEM, 0.1 µM (active); in the assay with COLO 205, 0.374 µM (active); with HCC 2998, 0.513 µM (active); in the assay on HCT-116, 0.804 µM (active). For the same compound, the GI50 in the assay on HOP-62 is 23.3 µM (inactive); in the assay on HT-29, 1.3 µM (inactive); with IGROV-1, 5.24 µM (inactive); with NCI-H460 it was 16.3 µM (inactive); in the assay with OVCAR-8 it was 0.869 µM (active); in the assay on RXF 393, 1.69 µM (inactive). Besides, the GI50 in the assay on SF-295 was 29.7 µM (inactive); in the assay on SK-MEL-2, 1.9 µM (inactive); in the assay on SK-MEL-5, 5.16 µM (inactive); with SN12C, 1.19 µM (inactive); with SNB-19, 19 µM (inactive); in the assay on SW-620, 0.0726 µM (active). In addition, the values for the GI50 in the assay with UACC-62 and in the assay on UO-31 were 4.66 µM (inactive) and 1.67 µM (inactive), respectively.
For `N/N=C1\C(OC(=O)Nc2cccc(Cl)c2)=Nc2ccccc21`, the GI50 is 11.4 µM (inactive) in the assay with A498; 8 µM (inactive) in the assay on ACHN; 5.93 µM (inactive) in the assay on CCRF-CEM; 6.95 µM (inactive) with COLO 205; 5.71 µM (inactive) with HCC 2998; 4.67 µM (inactive) in the assay with HCT-116. The GI50 in the assay on HOP-62 is 2.75 µM (inactive); in the assay with HT-29, 6.59 µM (inactive); with IGROV-1, 8.15 µM (inactive); in the assay on NCI-H460 it was 6.9 µM (inactive); with OVCAR-8, 7.31 µM (inactive); in the assay on RXF 393 it was 13 µM (inactive). Further, the GI50 was 2.35 µM (inactive) with SF-295; 10.3 µM (inactive) in the assay with SK-MEL-2; 11.5 µM (inactive) in the assay on SK-MEL-5; 4.95 µM (inactive) in the assay with SN12C; 7.13 µM (inactive) with SNB-19; 9.12 µM (inactive) in the assay with SW-620. Also, the figures for the GI50 in the assay on UACC-62 and in the assay with UO-31 were 7.78 µM (inactive) and 5.32 µM (inactive), respectively.
Turning to `Cn1c(=O)[nH]c2nncnc2c1=O`, the GI50 was 87.1 µM (inactive) with A498; 173 µM (inactive) with CCRF-CEM; 69.2 µM (inactive) in the assay with COLO 205; 54 µM (inactive) in the assay on HCC 2998; 29.2 µM (inactive) in the assay with HCT-116; 34.4 µM (inactive) in the assay on HOP-62. For the same compound, the GI50 in the assay on HT-29 was 114 µM (inactive); in the assay with IGROV-1, 29.2 µM (inactive); in the assay with NCI-H460, 29.3 µM (inactive); in the assay on OVCAR-8, 19.8 µM (inactive); in the assay with RXF 393, 19.3 µM (inactive); in the assay on SF-295, 103 µM (inactive). Also, the GI50 with SK-MEL-2 is 120 µM (inactive); with SK-MEL-5, 92.5 µM (inactive); with SN12C, 148 µM (inactive); with SNB-19, 51.2 µM (inactive); with SW-620 it was 75 µM (inactive); in the assay on UACC-62 it was 44.4 µM (inactive). The GI50 in the assay on UO-31 is 46 µM (inactive).
Turning to `CSc1nc(NC2OC(CO)C(O)C(O)C2O)c(N)c(=O)[nH]1` (centres undefined), the GI50 in the assay with A498, with CCRF-CEM, in the assay on COLO 205, with HCC 2998, with HCT-116 and in the assay on HOP-62 was > 100 µM (inactive) throughout. The GI50 with HT-29, in the assay on IGROV-1, in the assay on NCI-H460, in the assay with OVCAR-8, in the assay on RXF 393 and with SF-295 was > 100 µM (inactive) each time. For the same compound, the GI50 in the assay with SK-MEL-2, in the assay with SK-MEL-5, with SN12C, in the assay with SNB-19, with SW-620 and with UACC-62 was > 100 µM (inactive) in each case. Further, in the assay on UO-31, the GI50 is > 100 µM (inactive).
Regarding `CSc1nc(CO)c(CO)n1C`, the GI50 in the assay on A498, in the assay on CCRF-CEM, with COLO 205, with HCC 2998, in the assay on HCT-116 and in the assay with HOP-62 was > 100 µM (inactive) in each case. Besides, the GI50 in the assay on HT-29, in the assay on IGROV-1, in the assay with NCI-H460, with OVCAR-8, with RXF 393 and in the assay with SF-295 was > 100 µM (inactive) throughout. Also, the GI50 in the assay on SK-MEL-2, with SK-MEL-5, in the assay with SN12C, with SNB-19, with SW-620 and in the assay on UACC-62 was > 100 µM (inactive) throughout. The GI50 with UO-31 was > 100 µM (inactive).
Turning to `COc1ccc2c(c1O)-c1cc(O)cc3c1[C@@H](C2)N(C)CC3`, the GI50 was 49.9 µM (inactive) in the assay on A498; 81.1 µM (inactive) in the assay with CCRF-CEM; 50.7 µM (inactive) in the assay on COLO 205; 73.6 µM (inactive) in the assay with HCC 2998; 27 µM (inactive) with HCT-116; 32.9 µM (inactive) in the assay on HOP-62. Moreover, the GI50 is > 92.3 µM (inactive) in the assay on HT-29; 72.8 µM (inactive) in the assay on IGROV-1; 74 µM (inactive) in the assay on NCI-H460; 8.79 µM (inactive) with OVCAR-8; 55.7 µM (inactive) in the assay on RXF 393; 72.3 µM (inactive) in the assay on SF-295. Besides, the GI50 in the assay with SK-MEL-2 was 27.5 µM (inactive); with SK-MEL-5 it was 62.2 µM (inactive); with SN12C, 82 µM (inactive); with SNB-19, 101 µM (inactive); in the assay on SW-620 it was 61.8 µM (inactive); with UACC-62, 70 µM (inactive). Moreover, the GI50 in the assay on UO-31 was 44.2 µM (inactive).
For `C[C@]12CC[C@@H]3c4ccc(OCCN5CCCC5)cc4CC[C@H]3[C@@H]1CCC2=O`, the GI50 in the assay on A498 was 81.1 µM (inactive); in the assay with ACHN, 62.7 µM (inactive); with CCRF-CEM it was 37.9 µM (inactive); in the assay with COLO 205, 8.41 µM (inactive); in the assay on HCC 2998, 10.3 µM (inactive); with HOP-62, 18.6 µM (inactive). Besides, the GI50 in the assay on HT-29 is 25.9 µM (inactive); in the assay with IGROV-1, 12.4 µM (inactive); in the assay on NCI-H460 it was 19.9 µM (inactive); in the assay with OVCAR-8, 25.6 µM (inactive); in the assay on RXF 393, 25.5 µM (inactive); with SF-295, 18.7 µM (inactive). Besides, the GI50 in the assay on SK-MEL-2 is 17.6 µM (inactive); in the assay with SK-MEL-5, 13.3 µM (inactive); in the assay on SNB-19, 64.3 µM (inactive); in the assay with SW-620, 41 µM (inactive); in the assay with UACC-62, 23.8 µM (inactive); in the assay with UO-31, 20.8 µM (inactive).

The record behind these values is ChEMBL document CHEMBL1201862, “PubChem BioAssay data set” (2004).
